Experimental findings from ChEMBL document CHEMBL5442219 are described below.

The term inhibition denotes the relative decrease from the control value, in per cent.

Common to all, as to settings: Compound concentration 10 µM
The target of test [1] is T1, D(4) dopamine receptor (Homo sapiens) (UniProt P21917).
T1 sequence (whole entry): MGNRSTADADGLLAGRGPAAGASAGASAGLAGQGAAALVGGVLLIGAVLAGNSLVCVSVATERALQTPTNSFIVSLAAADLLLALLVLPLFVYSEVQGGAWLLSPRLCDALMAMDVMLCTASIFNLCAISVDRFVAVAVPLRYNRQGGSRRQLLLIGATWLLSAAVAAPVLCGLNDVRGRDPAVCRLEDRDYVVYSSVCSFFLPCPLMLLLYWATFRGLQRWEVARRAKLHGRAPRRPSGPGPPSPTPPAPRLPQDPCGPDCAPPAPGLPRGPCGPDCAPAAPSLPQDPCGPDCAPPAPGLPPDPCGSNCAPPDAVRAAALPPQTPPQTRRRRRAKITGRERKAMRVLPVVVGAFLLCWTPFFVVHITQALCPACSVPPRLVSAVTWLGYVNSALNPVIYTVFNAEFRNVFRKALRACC

The target in test [2] is T2, Alpha-2C adrenergic receptor (Homo sapiens) (UniProt P18825).
T2 sequence (whole entry): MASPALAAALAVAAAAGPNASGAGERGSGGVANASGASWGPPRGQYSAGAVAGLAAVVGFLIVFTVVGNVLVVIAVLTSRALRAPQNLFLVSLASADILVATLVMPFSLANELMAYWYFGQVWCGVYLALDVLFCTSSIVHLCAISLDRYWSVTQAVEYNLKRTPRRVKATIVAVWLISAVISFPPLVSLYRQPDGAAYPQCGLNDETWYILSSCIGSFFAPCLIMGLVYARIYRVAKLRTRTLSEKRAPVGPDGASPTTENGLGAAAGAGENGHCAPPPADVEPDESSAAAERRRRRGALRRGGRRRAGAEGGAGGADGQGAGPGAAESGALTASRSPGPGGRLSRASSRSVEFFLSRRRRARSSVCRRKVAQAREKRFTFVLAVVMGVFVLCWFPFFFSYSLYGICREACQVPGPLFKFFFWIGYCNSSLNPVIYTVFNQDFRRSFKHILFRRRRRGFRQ

Test [3] addresses 5-hydroxytryptamine receptor 2A (Homo sapiens) (UniProt P28223).
The target in test [4] is T3, 5-hydroxytryptamine receptor 1A (Homo sapiens) (UniProt P08908).
T3 sequence (whole entry): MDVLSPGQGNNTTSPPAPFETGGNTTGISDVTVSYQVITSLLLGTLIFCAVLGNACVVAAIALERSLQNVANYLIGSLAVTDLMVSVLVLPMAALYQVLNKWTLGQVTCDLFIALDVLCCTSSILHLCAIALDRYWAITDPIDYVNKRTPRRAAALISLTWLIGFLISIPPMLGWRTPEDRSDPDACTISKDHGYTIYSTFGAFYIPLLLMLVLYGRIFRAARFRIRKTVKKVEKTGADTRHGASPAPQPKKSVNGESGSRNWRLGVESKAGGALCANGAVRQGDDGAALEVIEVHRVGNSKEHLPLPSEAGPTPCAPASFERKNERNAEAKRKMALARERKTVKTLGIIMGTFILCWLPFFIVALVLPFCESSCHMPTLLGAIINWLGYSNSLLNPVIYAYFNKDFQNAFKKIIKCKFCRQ

The target of test [5] is Sigma intracellular receptor 2 (Homo sapiens) (UniProt Q5BJF2).
Test [6] has as its target Translocator protein (Homo sapiens) (UniProt P30536).
Test [7] addresses T4, 5-hydroxytryptamine receptor 3A (Homo sapiens) (UniProt P46098).
T4 sequence (whole entry): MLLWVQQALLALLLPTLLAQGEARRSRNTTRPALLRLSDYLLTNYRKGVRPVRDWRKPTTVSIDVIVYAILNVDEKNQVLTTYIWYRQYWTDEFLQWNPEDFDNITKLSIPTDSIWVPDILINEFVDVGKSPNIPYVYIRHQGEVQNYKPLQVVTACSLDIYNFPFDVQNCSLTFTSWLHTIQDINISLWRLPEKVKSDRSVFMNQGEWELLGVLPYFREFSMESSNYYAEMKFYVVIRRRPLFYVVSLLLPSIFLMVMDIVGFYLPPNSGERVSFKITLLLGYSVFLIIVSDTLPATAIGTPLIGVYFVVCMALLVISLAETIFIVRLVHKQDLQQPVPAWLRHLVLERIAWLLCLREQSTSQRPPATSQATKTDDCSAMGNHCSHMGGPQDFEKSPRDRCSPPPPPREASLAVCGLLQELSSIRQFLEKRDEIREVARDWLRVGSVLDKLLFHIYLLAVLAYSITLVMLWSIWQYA

Test [8] concerns the target Beta-2 adrenergic receptor (Homo sapiens) (UniProt P07550).
Test [9] deals with 5-hydroxytryptamine receptor 2B (Homo sapiens) (UniProt P41595).
Test [10] deals with D(3) dopamine receptor (Homo sapiens) (UniProt P35462).
In test [11] the target is Kappa-type opioid receptor (Homo sapiens) (UniProt P41145).
Test [12] deals with 5-hydroxytryptamine receptor 1E (Homo sapiens) (UniProt P28566).
Test [13] has as its target T5, 5-hydroxytryptamine receptor 2C (Homo sapiens) (UniProt P28335).
T5 sequence (whole entry): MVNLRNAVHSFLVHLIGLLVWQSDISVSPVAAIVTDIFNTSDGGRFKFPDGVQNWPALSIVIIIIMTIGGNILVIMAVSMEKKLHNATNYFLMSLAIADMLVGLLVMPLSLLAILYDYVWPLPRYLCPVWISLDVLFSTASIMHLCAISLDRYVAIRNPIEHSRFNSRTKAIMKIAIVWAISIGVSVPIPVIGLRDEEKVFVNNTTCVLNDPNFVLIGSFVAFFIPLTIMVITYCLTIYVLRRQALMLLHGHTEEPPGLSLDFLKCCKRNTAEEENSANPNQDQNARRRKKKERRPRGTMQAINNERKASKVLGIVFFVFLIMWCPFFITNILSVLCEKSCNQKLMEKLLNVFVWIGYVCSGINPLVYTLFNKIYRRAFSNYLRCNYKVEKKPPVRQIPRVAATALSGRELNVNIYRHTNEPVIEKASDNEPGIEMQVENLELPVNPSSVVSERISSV

In test [14] the target is Histamine H1 receptor (Homo sapiens) (UniProt P35367).
For test [15], the target named is Histamine H4 receptor (Homo sapiens) (UniProt Q9H3N8).
Sequence of Histamine H4 receptor (Homo sapiens) (Q9H3N8 whole entry): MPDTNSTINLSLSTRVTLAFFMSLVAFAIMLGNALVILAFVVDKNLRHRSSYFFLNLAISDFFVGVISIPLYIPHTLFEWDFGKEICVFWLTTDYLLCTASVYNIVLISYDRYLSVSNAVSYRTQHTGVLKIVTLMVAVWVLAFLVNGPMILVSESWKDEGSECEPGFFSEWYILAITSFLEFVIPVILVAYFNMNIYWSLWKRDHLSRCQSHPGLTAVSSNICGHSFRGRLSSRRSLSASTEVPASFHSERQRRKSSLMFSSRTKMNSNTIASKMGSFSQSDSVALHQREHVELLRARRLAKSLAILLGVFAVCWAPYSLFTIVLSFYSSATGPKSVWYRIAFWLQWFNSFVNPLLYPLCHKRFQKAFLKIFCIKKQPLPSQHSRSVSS

Sequence of Sigma intracellular receptor 2 (Homo sapiens) (Q5BJF2 whole entry): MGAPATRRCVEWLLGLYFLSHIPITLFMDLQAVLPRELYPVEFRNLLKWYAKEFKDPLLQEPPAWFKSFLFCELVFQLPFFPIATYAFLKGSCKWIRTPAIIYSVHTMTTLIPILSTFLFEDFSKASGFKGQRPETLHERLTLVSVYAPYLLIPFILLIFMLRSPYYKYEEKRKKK
Sequence of 5-hydroxytryptamine receptor 1E (Homo sapiens) (P28566 whole entry): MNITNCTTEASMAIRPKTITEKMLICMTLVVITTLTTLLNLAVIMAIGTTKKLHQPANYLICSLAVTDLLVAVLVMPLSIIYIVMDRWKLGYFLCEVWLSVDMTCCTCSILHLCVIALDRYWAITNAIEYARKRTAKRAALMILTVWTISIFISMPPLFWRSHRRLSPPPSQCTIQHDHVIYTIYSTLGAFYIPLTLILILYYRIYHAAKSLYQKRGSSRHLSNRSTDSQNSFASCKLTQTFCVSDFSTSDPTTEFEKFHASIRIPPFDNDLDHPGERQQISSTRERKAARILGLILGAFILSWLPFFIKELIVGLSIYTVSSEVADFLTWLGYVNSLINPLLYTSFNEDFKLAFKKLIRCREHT
Sequence of 5-hydroxytryptamine receptor 2B (Homo sapiens) (P41595 whole entry): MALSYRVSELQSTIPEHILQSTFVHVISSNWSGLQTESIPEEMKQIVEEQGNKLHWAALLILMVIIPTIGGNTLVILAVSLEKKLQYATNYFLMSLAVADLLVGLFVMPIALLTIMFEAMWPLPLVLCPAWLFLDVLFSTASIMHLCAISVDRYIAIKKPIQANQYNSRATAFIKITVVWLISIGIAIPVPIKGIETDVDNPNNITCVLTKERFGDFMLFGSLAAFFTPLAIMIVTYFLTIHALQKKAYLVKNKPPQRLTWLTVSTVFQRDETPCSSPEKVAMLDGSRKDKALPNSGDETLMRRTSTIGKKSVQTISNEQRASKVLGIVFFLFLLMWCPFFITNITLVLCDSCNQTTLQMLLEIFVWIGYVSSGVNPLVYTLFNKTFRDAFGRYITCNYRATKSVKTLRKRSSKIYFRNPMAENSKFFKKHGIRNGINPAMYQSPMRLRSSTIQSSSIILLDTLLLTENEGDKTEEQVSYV
Sequence of 5-hydroxytryptamine receptor 2A (Homo sapiens) (P28223 whole entry): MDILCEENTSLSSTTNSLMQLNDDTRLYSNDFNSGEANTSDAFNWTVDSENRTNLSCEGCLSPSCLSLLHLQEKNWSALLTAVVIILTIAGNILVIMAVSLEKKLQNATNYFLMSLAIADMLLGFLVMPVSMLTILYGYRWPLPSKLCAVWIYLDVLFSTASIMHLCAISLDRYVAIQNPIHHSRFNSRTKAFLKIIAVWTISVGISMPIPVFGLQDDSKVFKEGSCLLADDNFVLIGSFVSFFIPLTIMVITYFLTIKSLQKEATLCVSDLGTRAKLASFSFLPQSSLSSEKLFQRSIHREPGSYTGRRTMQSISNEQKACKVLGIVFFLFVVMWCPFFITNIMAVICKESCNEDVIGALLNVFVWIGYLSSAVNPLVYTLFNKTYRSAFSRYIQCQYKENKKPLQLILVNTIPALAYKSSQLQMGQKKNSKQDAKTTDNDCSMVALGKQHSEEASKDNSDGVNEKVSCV
Sequence of Translocator protein (Homo sapiens) (P30536 whole entry): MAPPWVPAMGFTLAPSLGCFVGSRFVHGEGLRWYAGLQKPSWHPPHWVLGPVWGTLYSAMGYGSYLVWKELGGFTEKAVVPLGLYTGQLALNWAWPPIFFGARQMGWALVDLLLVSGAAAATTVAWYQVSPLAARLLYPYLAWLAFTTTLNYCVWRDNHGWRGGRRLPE
Sequence of Beta-2 adrenergic receptor (Homo sapiens) (P07550 whole entry, looked up): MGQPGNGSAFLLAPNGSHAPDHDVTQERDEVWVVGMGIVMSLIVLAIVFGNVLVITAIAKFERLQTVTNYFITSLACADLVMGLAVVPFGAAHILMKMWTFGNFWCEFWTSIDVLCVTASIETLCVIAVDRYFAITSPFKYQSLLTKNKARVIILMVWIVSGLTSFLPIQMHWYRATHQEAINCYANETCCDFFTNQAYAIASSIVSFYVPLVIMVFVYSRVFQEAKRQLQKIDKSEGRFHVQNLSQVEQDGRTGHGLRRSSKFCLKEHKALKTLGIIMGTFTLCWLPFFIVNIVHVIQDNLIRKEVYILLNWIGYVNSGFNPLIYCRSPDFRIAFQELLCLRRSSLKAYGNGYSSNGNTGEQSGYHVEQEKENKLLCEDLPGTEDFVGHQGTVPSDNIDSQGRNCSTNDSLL
Sequence of D(3) dopamine receptor (Homo sapiens) (P35462 whole entry): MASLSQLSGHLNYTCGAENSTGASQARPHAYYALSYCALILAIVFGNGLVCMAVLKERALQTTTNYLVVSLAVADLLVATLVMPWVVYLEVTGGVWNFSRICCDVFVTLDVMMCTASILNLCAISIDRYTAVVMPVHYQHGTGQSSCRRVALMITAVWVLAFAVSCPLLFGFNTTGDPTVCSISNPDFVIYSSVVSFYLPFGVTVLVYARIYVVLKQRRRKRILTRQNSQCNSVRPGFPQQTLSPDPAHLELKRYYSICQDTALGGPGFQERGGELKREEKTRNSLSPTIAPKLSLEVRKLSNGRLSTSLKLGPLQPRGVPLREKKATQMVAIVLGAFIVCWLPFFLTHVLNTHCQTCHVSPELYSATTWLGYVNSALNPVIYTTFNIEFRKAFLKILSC
Sequence of Histamine H1 receptor (Homo sapiens) (P35367 whole entry): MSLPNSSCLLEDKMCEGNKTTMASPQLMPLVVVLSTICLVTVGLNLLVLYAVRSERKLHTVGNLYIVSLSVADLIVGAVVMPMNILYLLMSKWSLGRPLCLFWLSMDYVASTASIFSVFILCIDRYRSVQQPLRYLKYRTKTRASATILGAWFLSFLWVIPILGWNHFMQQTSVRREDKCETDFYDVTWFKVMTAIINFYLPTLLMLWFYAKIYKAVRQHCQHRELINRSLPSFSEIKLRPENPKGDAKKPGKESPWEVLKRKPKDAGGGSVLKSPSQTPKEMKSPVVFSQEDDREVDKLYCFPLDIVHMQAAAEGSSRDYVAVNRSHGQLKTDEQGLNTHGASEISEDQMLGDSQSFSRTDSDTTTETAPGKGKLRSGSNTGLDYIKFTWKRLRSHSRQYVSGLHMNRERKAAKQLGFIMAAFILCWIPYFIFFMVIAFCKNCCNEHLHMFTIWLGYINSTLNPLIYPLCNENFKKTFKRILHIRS
Sequence of Kappa-type opioid receptor (Homo sapiens) (P41145 whole entry): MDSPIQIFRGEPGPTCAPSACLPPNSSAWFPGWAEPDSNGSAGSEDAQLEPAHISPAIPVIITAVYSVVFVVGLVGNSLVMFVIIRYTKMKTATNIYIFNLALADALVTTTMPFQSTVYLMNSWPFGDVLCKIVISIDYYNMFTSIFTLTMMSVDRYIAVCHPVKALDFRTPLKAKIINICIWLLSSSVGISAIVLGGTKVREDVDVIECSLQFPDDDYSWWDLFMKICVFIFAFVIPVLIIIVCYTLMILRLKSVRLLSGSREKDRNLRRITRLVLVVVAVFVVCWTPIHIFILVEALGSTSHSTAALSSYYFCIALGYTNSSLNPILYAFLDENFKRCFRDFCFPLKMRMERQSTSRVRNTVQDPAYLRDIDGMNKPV

`NC[C@H](O)c1ccc(O)c(O)c1`: the inhibition in test [1] was 46.9%; in test [2], 79.4%; in test [3], 10.9%; in [4], -9.29%; in test [5], 24.6%; in test [6] it was 4.34%. Besides, the inhibition in [7] is -8.31%; in test [8], 16.9%; in [9] it was 24.8%; in test [10], 57.9%; in test [11], 0.54%; in [12], 1.24%. Further, the inhibition in test [13] is -4.42%.

As for `c1cc(CN2CCCNCCNCCCNCC2)ccc1CN1CCCNCCNCCCNCC1`, the inhibition is 66.3% in [2]; 0.83% in [3]; -5.42% in test [14]; -6.66% in test [4]; 22.5% in test [5]; 7.76% in test [6]. In addition, the inhibition in test [15] is 11.2%; in test [7] it was 21.9%; in test [8] it was -4.45%; in test [10], 37.2%; in [11] it was 13.8%; in test [12], 33.9%.

Regarding `Cc1ccc(O)c([C@H](CCN(C(C)C)C(C)C)c2ccccc2)c1`, the inhibition in test [1] is 35.3%; in [2], 14.9%; in test [3], 11.4%; in test [14], 83.1%; in test [4], -6.09%; in test [5], 96.9%. The inhibition in test [6] was 13.8%; in test [15], -9.16%; in test [7], -0.33%; in test [8], 19.5%; in test [9], 32.5%; in test [10], 46.2%. Also, the inhibition in test [11] is 31%.

For the compound `COc1ccc2[nH]cc(CCNC(C)=O)c2c1`, the inhibition is 1.97% in [1]; 5.08% in test [4]; 22.1% in test [5]; -3.64% in [15]; -3.39% in test [7]; -1.29% in test [8]. Also, the inhibition in test [9] is 49.5%; in [10], -7.6%.

As to `CC(C)Oc1ccccc1C(=O)Nc1ccccc1C(=O)Nc1cccc(S(=O)(=O)C(F)(F)F)c1`, the inhibition was 43% in test [1]; 87.8% in [3]; 2.1% in test [14]; 6.76% in [4]; -6.23% in [5]; 66.1% in test [6]. For the same compound, the inhibition was -3.89% in [7]; -8.68% in test [8]; 23.1% in [10]; -4.72% in test [12]; 11.3% in test [13].

Take `Brc1c(NC2=NCCN2)ccc2nccnc12`: the inhibition in [1] was 16.9%; in test [2] it was 75.6%; in [4], -4.03%; in [5], 66.9%; in test [6], -7.41%; in [15], 2.56%. For the same compound, the inhibition is -5.05% in test [7]; -1.17% in [8]; 22.7% in test [9]; 29.2% in test [10]; 6.61% in test [13].

With `O=C1N/C(=N/c2ccccc2F)S/C1=C\c1ccc(C(=O)O)cc1`, the inhibition was 79.2% in [1]; 2.98% in test [2]; -0.36% in test [3]; 42.9% in [14]; 2.18% in test [4]; 33.9% in [5]. Also, the inhibition in test [6] was 4.31%; in test [15], -4.83%; in test [7], -3.21%; in test [8], 6.54%; in [9], -3.68%; in test [10], 5.3%. The inhibition in test [12] was 4.25%.
